Experimental data published in patent US20250152585A1, “PHARMACEUTICAL COMPOUND” (Duke Street Bio Limited, priority 2022, published 2025).
Where two headings read alike, the source gives them in different places.

Assays:
[1] = target: T1, full length N-terminally FLAG-tagged PARP1 (Homo sapiens, UniProt P09874); test: PARP1 biochemical DELFIA assay (auto-PARylation); design: recombinant full length human N-terminally FLAG-tagged PARP1
[2] = target: T1, full length N-terminally FLAG-tagged PARP1; test: PARP1 probe displacement HTRF assay; settings: for Kd: binned Kd; for Selectivity: PARP1 over PARP2, ratio Kd (PARP2)/Kd (PARP1)
[3] = target: T2, N-terminally FLAG-tagged PARP2 (amino acids 1-583) (Homo sapiens, UniProt Q9UGN5); test: PARP2 probe displacement HTRF assay; format: binding; settings: binned Kd
T2 construct: N-terminally FLAG-tagged PARP2 (amino acids 1-583)
T2 sequence (Q9UGN5 whole entry, the tested form may be a part): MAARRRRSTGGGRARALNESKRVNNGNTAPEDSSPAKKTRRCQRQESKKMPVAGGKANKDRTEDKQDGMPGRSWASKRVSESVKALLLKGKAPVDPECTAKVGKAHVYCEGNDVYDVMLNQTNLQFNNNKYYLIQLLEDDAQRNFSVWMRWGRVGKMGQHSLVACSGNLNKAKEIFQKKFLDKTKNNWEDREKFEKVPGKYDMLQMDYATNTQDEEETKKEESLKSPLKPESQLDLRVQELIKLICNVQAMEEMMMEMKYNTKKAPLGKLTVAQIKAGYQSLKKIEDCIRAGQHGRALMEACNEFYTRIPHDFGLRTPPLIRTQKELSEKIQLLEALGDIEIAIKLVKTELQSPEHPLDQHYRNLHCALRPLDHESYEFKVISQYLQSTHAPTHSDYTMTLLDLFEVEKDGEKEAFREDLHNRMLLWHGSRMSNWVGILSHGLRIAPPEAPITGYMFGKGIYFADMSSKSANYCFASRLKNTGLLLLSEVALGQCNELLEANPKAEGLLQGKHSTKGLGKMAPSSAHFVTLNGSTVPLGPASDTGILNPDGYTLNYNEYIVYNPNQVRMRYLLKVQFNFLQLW
Protocol: Data analysis was performed identical as for PARP1.

[4] = binned IC50, PARP1 biochemical DELFIA assay
[5] = PARP1 HTRF, PARP1 probe displacement HTRF
[6] = read-out: PARP1 HTRF, PARP1 probe displacement HTRF
[7] = binned IC50, biochemical auto-PARylation assay
[8] = read-out: PARP1 HTRF, probe displacement HTRF
[9] = PARP1 HTRF, probe displacement HTRF

T1 sequence (P09874 whole entry): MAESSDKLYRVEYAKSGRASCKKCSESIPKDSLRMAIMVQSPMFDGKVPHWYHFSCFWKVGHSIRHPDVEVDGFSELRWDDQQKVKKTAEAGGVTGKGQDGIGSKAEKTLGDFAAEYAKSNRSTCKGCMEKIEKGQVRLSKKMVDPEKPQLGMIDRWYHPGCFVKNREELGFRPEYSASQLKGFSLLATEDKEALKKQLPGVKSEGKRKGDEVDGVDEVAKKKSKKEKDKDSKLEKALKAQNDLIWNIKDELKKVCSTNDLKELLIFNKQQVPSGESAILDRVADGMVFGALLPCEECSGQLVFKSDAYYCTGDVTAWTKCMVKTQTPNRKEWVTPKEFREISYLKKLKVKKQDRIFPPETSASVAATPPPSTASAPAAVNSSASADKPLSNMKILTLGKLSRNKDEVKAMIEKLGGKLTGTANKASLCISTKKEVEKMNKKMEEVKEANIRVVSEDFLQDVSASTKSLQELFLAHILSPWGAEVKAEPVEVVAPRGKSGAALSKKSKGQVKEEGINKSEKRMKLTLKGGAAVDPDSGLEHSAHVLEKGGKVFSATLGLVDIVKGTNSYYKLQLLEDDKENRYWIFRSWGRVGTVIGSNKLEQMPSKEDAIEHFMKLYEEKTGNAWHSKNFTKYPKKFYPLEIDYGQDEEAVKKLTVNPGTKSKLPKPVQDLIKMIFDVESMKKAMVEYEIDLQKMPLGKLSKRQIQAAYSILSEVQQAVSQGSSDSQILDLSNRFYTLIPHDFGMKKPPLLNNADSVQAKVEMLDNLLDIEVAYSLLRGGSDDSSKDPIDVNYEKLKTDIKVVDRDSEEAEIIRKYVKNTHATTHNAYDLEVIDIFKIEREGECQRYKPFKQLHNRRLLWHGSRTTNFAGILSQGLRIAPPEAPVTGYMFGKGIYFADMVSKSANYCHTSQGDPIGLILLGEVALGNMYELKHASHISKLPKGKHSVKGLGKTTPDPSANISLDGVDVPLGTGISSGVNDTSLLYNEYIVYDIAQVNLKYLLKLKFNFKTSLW

| Compound | IC50 [1, 4] [µM] | Kd [2, 5] [µM] | Selectivity ([2]; probe displacement HTRF) | Kd ([3]; PARP2 probe displacement HTRF) [µM] | Kd [2, 6] [µM] | IC50 [1, 7] [µM] | Kd [2, 8] [µM] | Kd ([3]; probe displacement HTRF) [µM] | Kd [2, 9] [µM] |
| --- | --- | --- | --- | --- | --- | --- | --- | --- | --- |
| CNC(=O)c1ccc(N2CC(N3CCC(Cc4nc5ccccc5c(=O)[nH]4)CC3)C2)cn1 [Compound 48] | < 0.01 | < 0.01 | +++ (+++ indicate a value of at least 100) | 0.1 to 1 | – | – | – | – | – |
| CNC(=O)c1ccc(N2CCC(N3CCCC(C)(c4nc5ccccc5c(=O)[nH]4)C3)CC2)cn1 (single isomer, unassigned) [Compound 66a] | 1 to 10 | – | − (− indicates a value of less than 10) | > 10 | 1 to 10 | – | – | – | – |
| CCc1ccc(C2CCN(C3CCN(c4cnc(C(=O)NC)cc4C)CC3)C2)[nH]c1=O (single isomer, unassigned) [Compound 217b] | < 0.01 | – | ++ (++ indicates a value of 50 to less than 100) | 0.1 to 1 | < 0.01 | – | – | – | – |
| CNC(=O)c1ccc(N2CCC(N3CCC(c4cc5cccc(F)c5c(=O)[nH]4)C3)CC2)c(C)n1 (single isomer, unassigned) [Compound 206b] | < 0.01 | – | +++ (+++ indicate a value of at least 100) | 1 to 10 | < 0.01 | – | – | – | – |
| CNC(=O)c1ccc(N2CCC(N3CCC(c4cc5cccc(Cl)c5c(=O)[nH]4)C3)CC2)cn1 (single isomer, unassigned) [Compound 128a] | 0.01 to 0.1 | – | +++ (+++ indicate a value of at least 100) | 1 to 10 | 0.01 to 0.1 | – | – | – | – |
| CNC(=O)c1ccc(N2CCC(n3cc(-c4nc5ccccc5c(=O)[nH]4)cn3)CC2)cn1 [Compound 17, N-methyl-5-(4-(4-(4-oxo-3,4-dihydroquinazolin-2-yl)-1H-pyrazol-1-yl)piperidin-1-yl)picolinamide] | 0.01 to 0.1 | 0.01 to 0.1 | +++ (+++ indicate a value of at least 100) | > 10 | – | – | – | – | – |
| O=c1[nH]c(C2CCN(C3CCC(F)(F)CC3)C2)nc2ccccc12 (single isomer, unassigned) [Compound 4a] | 0.1 to 1 | – | − (− indicates a value of less than 10) | 0.1 to 1 | 0.1 to 1 | – | – | – | – |
| O=C(NCC(F)F)c1ccc(N2CCC(N3CCC(c4cc5cccc(F)c5c(=O)[nH]4)C3)CC2)c(F)n1 (single isomer, unassigned) [Compound 390b] | – | – | ++ (++ indicates a value of 50 to less than 100) | – | – | < 0.01 | < 0.01 | 0.01 to 0.1 | – |
| CNC(=O)c1ccc(N2CCC(N3CCC(c4nc5[nH]nc(C(F)(F)F)c5c(=O)[nH]4)C3)CC2)cn1 (single isomer, unassigned) [Compound 162b, N-methyl-5-(4-(3-(4-oxo-3-(trifluoromethyl)-4,5-dihydro-1H-pyrazolo[3,4-d]pyrimidin-6-yl)pyrrolidin-1-yl)piperidin-1-yl)picolinamide] | < 0.01 | < 0.01 | ++ (++ indicates a value of 50 to less than 100) | 0.01 to 0.1 | – | – | – | – | – |
| CS(=O)(=O)Nc1ccc(N2CCC(N3CCC(c4nc5ccccc5c(=O)[nH]4)C3)CC2)cc1 (single isomer, unassigned) [Compound 250a] | – | – | − (− indicates a value of less than 10) | – | – | 0.1 to 1 | 0.1 to 1 | 1 to 10 | – |
| CS(=O)(=O)NC(=O)c1ccc(N2CCC(N3CCC(c4cc5ccccc5c(=O)[nH]4)C3)CC2)cc1 (single isomer, unassigned) [Compound 342b] | – | – | + (+ indicates a value of 10 to less than 50) | – | – | < 0.01 | < 0.01 | 0.01 to 0.1 | – |
| N#Cc1ccc(N2CCC(N3CC4(c5nc6ccc(F)cc6c(=O)[nH]5)CC3C4)CC2)c(Cl)c1 [Compound 381] | – | – | +++ (+++ indicate a value of at least 100) | – | – | < 0.01 | – | 1 to 10 | < 0.01 |
| CNC(=O)c1ccc(N2CCC(N3CCC(c4cc5cccc(F)c5c(=O)[nH]4)C3)CC2)cn1 (single isomer, unassigned) [Compound 136a, 5-{4-[3-(8-fluoro-1-oxo-2H-isoquinolin-3-yl)pyrrolidin-1-yl]piperidin-1-yl}-N-methylpyridine-2-carboxamide] | < 0.01 | < 0.01 | +++ (+++ indicate a value of at least 100) | 0.1 to 1 | – | – | – | – | – |
| CNC(=O)c1ccc(N2CCC(N3CC4(c5nc6c(c(=O)[nH]5)CCCC6)CC3C4)CC2)cn1 [Compound 361, N-methyl-5-(4-(4-(4-oxo-3,4,5,6,7,8-hexahydroquinazolin-2-yl)-2-azabicyclo[2.1.1]hexan-2-yl)piperidin-1-yl)picolinamide] | – | – | +++ (+++ indicate a value of at least 100) | – | – | < 0.01 | – | 0.1 to 1 | < 0.01 |
| CNC(=O)c1cnc(N2CCC(N3CCCC(c4nc5ccccc5c(=O)[nH]4)C3)CC2)cn1 (single isomer, unassigned) [Compound 99a] | 1 to 10 | – | − (− indicates a value of less than 10) | > 10 | 1 to 10 | – | – | – | – |
| CNC(=O)c1ccc(N2CCC(N3CCCC(c4nc5c(Cl)cccc5c(=O)[nH]4)C3)CC2)cn1 (single isomer, unassigned) [Compound 44a] | < 0.01 | – | +++ (+++ indicate a value of at least 100) | > 10 | < 0.01 | – | – | – | – |
| CNC(=O)c1ccc(N2CCC(N3CCCC(c4ccc(C5CC5)c(=O)[nH]4)C3)CC2)cn1 (single isomer, unassigned) [Compound 126a] | < 0.01 | – | +++ (+++ indicate a value of at least 100) | 1 to 10 | < 0.01 | – | – | – | – |
| CNC(=O)c1ccc(N2CCC(N3CCCC(c4nc5ccccc5c(=O)[nH]4)C3)CC2)c(Cl)n1 (single isomer, unassigned) [Compound 94a] | 0.01 to 0.1 | – | + (+ indicates a value of 10 to less than 50) | 1 to 10 | 0.01 to 0.1 | – | – | – | – |
| CCc1ccc(C2CCN(C3CCN(c4ccc(C(=O)NC5CC5)nc4C#N)CC3)C2)[nH]c1=O (single isomer, unassigned) [Compound 409b] | – | – | +++ (+++ indicate a value of at least 100) | – | – | < 0.01 | < 0.01 | 0.1 to 1 | – |
| CCc1cnc(C23CC(C2)N(C2CCN(c4ccc(C(=O)NC)nc4C(F)(F)F)CC2)C3)[nH]c1=O [Compound 310] | – | – | +++ (+++ indicate a value of at least 100) | – | – | 0.01 to 0.1 | – | > 10 | < 0.01 |
| CNC(=O)c1ccc(N2CCC(N3CCC(c4[nH]c(=O)c5cc(F)ccc5c4F)C3)CC2)c(F)n1 (racemic) [Compound 403rac] | – | – | +++ (+++ indicate a value of at least 100) | – | – | < 0.01 | < 0.01 | 0.01 to 0.1 | – |
| CC(=O)NC(=O)c1ccc(N2CCC(N3CCC(c4cc5ccccc5c(=O)[nH]4)C3)CC2)cc1 (single isomer, unassigned) [Compound 341b] | – | – | + (+ indicates a value of 10 to less than 50) | – | – | 0.01 to 0.1 | 0.01 to 0.1 | 0.1 to 1 | – |
| CNC(=O)c1ccc(N2CCC(N3CCC(c4ccc(CC(F)(F)F)c(=O)[nH]4)C3)CC2)cn1 (single isomer, unassigned) [Compound 188b] | < 0.01 | – | +++ (+++ indicate a value of at least 100) | 0.1 to 1 | < 0.01 | – | – | – | – |
